Earlier results, collected in publication PMC4862687, “GPCRs Direct Germline Development and Somatic Gonad Function in Planarians” (PLoS Biology, 2016).

How the values were obtained:
[1] = tested on: GnRH neuronal output; set-up: method as in PMID 3131748, PMID 24221756; conditions: mammals and teleosts; ref [61],[62]; cited from earlier work
[2] = tested on: secretion of LH and GnRH; conditions: injection of NPY into sex steroid-primed ovariectomized rats; ref [53],[54]; cited from earlier work
Source text: (§1) NPF expression in Drosophila brain is sexually dimorphic and is believed to be centrally involved in mating behavior [52]. Also, NPF-deficient flies show a decrease in egg laying capacity, but the same effect is not observed in NPFR-1-deficient flies. […] Conversely, in intact rats, NPY has an inhibitory effect ...

[3] = tested on: pituitary-gonadal axis; conditions: intact rats; ref [55]; cited from earlier work
Source text: as §1

neuropeptide Y [NPY]
GnRH neuronal output [1]: positively modulates GnRH neuronal output
LH and GnRH secretion [2]: induces secretion of LH and GnRH
effect on reproduction / pituitary-gonadal axis [3]: inhibitory effect on reproduction by suppressing the pituitary-gonadal axis
